Patent publication US20020052354A1, “Paramagnetic DOTA derivatives, pharmaceutical agents that contain the latter, process for their production, and their use for MR imaging of necrosis and infarction” (Schering AG, priority 2000, published 2002)

Experiments:
[1] = in vivo; cited from earlier work
infarction areas = settings: Circulation, Vol. 90, No. 4, 1994; cited from earlier work
[2] = Determination of relaxivity R1 and R2 (Minispec PC 20); format: physicochemical; settings: bovine plasma; 40° C.; 0.47 tesla; n = 3
Method: Determination of Relaxivity R1 [Lmmol^−1 s^−1] and R2 [Lmmol^−1 s^−1]
Measurement at 40° C.; 0.47 tesla
T1-sequence 180°-TI-90°, inversion recovery

Substance | deposition in the skin (photosensitization and discoloration) [1] | visualization of infarction areas (infarction areas) | Relaxivity R1 [2] | Relaxivity R2 [2]
Gd-mesoporphyrin [1c, DE 4232925] | tend to be deposited in the skin | readily visualize infarction areas | 15.3 ± 0.3 Lmmol^−1 s^−1 | 16.3 ± 0.2 Lmmol^−1 s^−1
Mn-tetraphenyl-porphyrin [Mn-TTP] | – | readily visualize infarction areas | – | –
N,N-Bis[1,4,7-tris(carboxylatomethyl)-1,4,7,10-tetraazacyclododecane-Gd-complex-10-(3-aza-4-oxo-hexan-5-ylic)-acid]-4,4′-methylene-N′,N′-bis[(3-methoxy)-2-naphtoic acid]-tetrahydrazide [Example 4] | – | – | 17.0 ± 0.1 Lmmol^−1 s^−1 | 20.2 ± 0.6 Lmmol^−1 s^−1
N-(1,4,7,-Tris(carboxylatomethyl)-1,4,7,10-tetraazacyclododecane-Gd-complex-10-[1-carboxylate-1-[3-oxapropionic acid)-phenyl]-methyl-N′-[3-(methoxy),2-naphthoic acid]-dihydrazide, sodium salt [Example 11] | – | – | 22.8 ± 0.8 Lmmol^−1 s^−1 | 29.2 ± 1.1 Lmmol^−1 s^−1
